Reference: patent US5336762A, “Polychelating agents for image and spectral enhancement (and spectral shift)” (priority 1991, dated 1994)

Key:
[1] = cited from earlier work
[2] = In vitro T1 relaxation of water protons (IBM PC20 Minispectrometer, 20 MHz); type: physicochemical
Description: Fe^+3 as the dextran-iron oxide (in which the iron is complexed loosely to the hydroxyl groups of dextran), was obtained as "Proferdex" (20% iron, w/w) (Fisons Pharmaceuticals) and tested, both before and after extensive dialysis (to remove loosely bound iron), for NMR T1-enhancing activity in vitro (using an IBM PC20 Minispectrometer, 20 MHz).

[3] = test system: liver; experiment: Liver T1 decrease in mice; type: in vivo; conditions: usual 30-minute imaging interval; 0.10 to 0.30 mmoles/kg
[4] = test system: liver, kidney, bone marrow; experiment: In vivo MR imaging of normal tissues, Sprague-Dawley rats (0.35 Tesla)
Description: (§2) Sprague-Dawley rats were imaged using a 0.35-Tesla, Diasonics clinical MR imaging system and a 30-cm rf coil. Three clinically relevant pulse sequences were used: 1) spin-echo with a TR of 0.5 seconds (for T1-weighted images), 2) inversion-recovery (IR) (for T1-weighted images), and 3) spin-echo with a TR of 2.0 seconds (for T2-weighted images). Diasonics software was used to calculate the area-averaged tissue intensities before and after injection of contrast agents. Dual pulse sequences (spin-echo, with TR's of 0.5 and 1.5 seconds or 1.0 and 2.0 seconds) were also used to calculate the in vivo T1 relaxation times. At the conclusion of imaging, the liver, spleen and kidneys were excised and their T1 (IR) and T2 (Carr-Purcell-Meiboom-Gill) relaxation times were determined at 37° C., using an IBM PC20 Minispectrometer. For these in vitro experiments, uninjected rats were used in place of preinjection controls.
Post-contrast images were obtained serially beginning immediately after the i.v. injection of contrast agents and continuing for several hours thereafter.

[5] = test system: spleen; experiment: T1 of freshly excised rat spleens; type: in vivo, Sprague-Dawley rats; conditions: 30 min post vs. pre
Description: as §2

[6] = test system: 7777-strain Morris hepatoma; experiment: MR imaging of Morris hepatoma (7777) in Buffalo rats; type: in vivo, Buffalo-strain rats; conditions: after injection
Experimental: After two to three weeks the local tumors had reached an average diameter of 0.5 and 1.0 cm. The rats were then imaged both before and after i.v. injections of Gd-DTPA or microsphere Gd-DTPA. MR imaging was performed in a 30cm rf coil with a 0.35 Tesla, Diasonics clinical MRI system (as described above). Post-contrast images were obtained serially beginning immediately after injection and continuing for several hours thereafter.

[7] = test system: blood in heart chambers; experiment: T1-weighted blood flow images of cardiac chambers; type: in vivo, Sprague-Dawley rats; conditions: comparable Gd dose
Experimental: Gd:DTPA-dextran microspheres (at 0.3 mmoles Gd/kg) were injected i.v. at time zero into Sprague-Dawley rats and images were obtained immediately and serially each 5 minutes×4 (spin-echo, multi-echo, TR=0.5 and 1.5).

[8] = test system: liver, kidney; experiment: Proton T1 relaxation times in mouse organs (Example 18a); type: in vivo, CBA mice; conditions: 30 min; Gd dose 0.23 mmol/kg (DEAE forms), 0.47 (dimeglumine)
Experimental: Test materials were injected i.v. into 25 gm CBA mice. At 30 min the mice were sacrificed by decapitation (exsanguination) and the excised livers and kidneys assessed for changes in proton T1 relaxation times (20 MHz; IR pulse sequence). Doses of test materials were made equivalent based on in vitro potency (ID50 analysis).

[9] = test system: liver, kidney, bone marrow; experiment: In vivo MR imaging T1 in rats (Example 18b); design: species or system Sprague-Dawley rats; conditions: Gd 0.30 (soluble), 0.15 (microspheres), 0.30 (dimeglumine) mmol/kg; ~30 min
Experimental: (§1) Test materials were injected intravenously into 500 gm Sprague-Dawley rats. At approximately 30 minutes, the rats were placed in the head coil of a 0.35 Tesla clinical imaging device (Diasonics Corp.), and T1-weighted images (using both a spin-echo pulse sequence at TR's of 0.5, 1.5 and 2.0, and an inversion recovery sequence) were obtained on image slices of 0.5 cm thickness taken through the liver and kidneys. T1 relaxation times were determined from the TR=0.5 and 2.0 data using area-averaging of signal intensities and a proprietary software program for calculations. At the completion of imaging, the rats were sacrificed by decapitation (exsanguination). Their livers, kidneys and spleens were excised, tested for in vitro correlations with the in vivo changes in proton T1 relaxation times and then placed in buffered formalin fixative for histopathologic evaluation.

[10] = test system: liver, spleen, kidney; experiment: In vitro T1 of excised rat organs (Example 18b); type: in vivo, Sprague-Dawley rats; conditions: same doses
Experimental: as §1

[11] = test system: BRO human melanoma; experiment: MR imaging of human BRO melanoma in nude mice; type: in vivo, Swiss-strain nude mice bearing human melanoma
Experimental: These studies are performed using the rapidly proliferating, amelanotic, BRO human melanoma grown to a weight of 2.0-6.0 gms in the axillary soft tissues of Swiss-strain nude mice. The amelanotic nature of the tumor avoids any potential for alteration of unenhanced tissue-relaxation times by naturally occurring paramagnetic substances which have been described for pigmented melanomas. The axillary location of tumors allows imaging of the tumor and liver in adjacent slices. This shortens the imaging time for each group of mice and provides maximal anatomic separation of tumors from the higher-intensity kidneys and bladder. MR imaging is performed on a Diasonics 0.35T instrument, using a 30-cm rf coil, and a T1-weighted spin-echo pulse sequence (TR 500, TE 40). Pentobarbital is used for animal anesthesia in order to avoid drug modulation of image intensities. T1 relaxation were performed on the freshly excised organs. In general, these T1's decreased in proportion to increased image intensities. […] The new soluble polymeric agent had the following advantages: […]

[12] = cited from earlier work; remark: listed apart in the source
[13] = test system: human brain tumors; conditions: preliminary studies; cited from earlier work
[14] = 30 min post vs. pre, Gd 0.3 mmoles/kg dimeglumine, 0.009 mmoles/kg microspheres

In the case of O=C(O)CN1CCN(CC(=O)O)CCN(CC(=O)O)CCN(CC(=O)O)CC1 [DOTA, 1,4,7,10-tetraazacyclododecane-N,N',N"-tetraacetic acid], the “relaxivity, times that of Gd-DTPA” value ([1]; wide range of Larmor frequencies) is listed as “approximately 2 times”.

Molecule O=[N+]([O-])[O-].O=[N+]([O-])[O-].O=[N+]([O-])[O-].[Fe+3] [Ferric nitrate] has an R1 relaxivity ([2]; Table 1, iron compounds) of 1.476 mmol⁻¹ s⁻¹.

In the case of CNC[C@H](O)[C@@H](O)[C@H](O)[C@H](O)CO.CNC[C@H](O)[C@@H](O)[C@H](O)[C@H](O)CO.O=C([O-])CN(CCN(CC(=O)[O-])CC(=O)O)CCN(CC(=O)[O-])CC(=O)O.[Gd+3] [Gd:DTPA dimeglumine], the “ID50 (total weight), concentration reducing T1 to 50% of buffered saline” value ([2]; 20 MHz, phosphate-buffered saline) is reported as 84 µg/mL, the “changes in liver T1” value [3] is reported as “minimal changes in liver Tl's” and the “% decrease in T1, kidney” value [4, 14] is reported as 55.7%. The “% decrease in T1, liver” value [4, 14] was 24.6%, the “time after which all liver enhancement was lost” value ([4]; rat, in vivo) was 50 min and the “% decrease in T1 of spleen” value [5] was 14.4%. For the same molecule, the “time by which contrast was significantly reduced” value [6] was no more than 1.5 h, the “enhancement of blood flow images” value [7] was “almost completely ineffective” and the “T1 (% of control), kidney” value [8] was 24%. For the same molecule, the “T1 (% of control), liver” value [8] was 83%, the “T1 (% of control), in vivo, kidney” value [9] was 57% and the “T1 (% of control), in vivo, liver” value [9] was 83%. For the same molecule, the “T1 (% of control), in vitro, liver” value ([10]; control 275 msec) was 88%, the “T1 (% of control), in vitro, spleen” value ([10]; control 464 msec) was 86% and the “T1 (% of control), in vitro, kidney” value ([10]; control 492 msec) was 25%. For the same molecule, the “enhancement of BRO melanoma” value ([11]; 0.03 mmols Gd per kg) was “barely perceptible”, the “dose required for enhancement, higher than 0.03 mmols Gd per kg” value ([11]; in vivo) was 1/2 and the “clearance half-time from bloodstream and tumors” value ([12]; in vivo) was 20 min. For the same molecule, the “sequestered in the kidneys” value ([12]; intravenous) was greater than 90%, the “relaxivity at higher radio frequencies” value ([1]; typically 15 MHz) was “marked decrease in relaxivity” and the “enhancement of human brain tumors” value [13] was “almost all human brain tumors undergo significant enhancement”.

With [Cl][Gd]([Cl])[Cl] [GdCl3] the “R1 (in vitro T1 relaxivity)” value ([2]; physiologic saline) was 3.03 mM⁻¹ s⁻¹.
